# Measured values from patent US20160137639A1, “TRIAZOLE-ISOXAZOLE COMPOUND AND MEDICAL USE THEREOF” (JAPAN TOBACCO INC., priority 2012, published 2016).
# Where two headings read alike, the source gives them in different places.
# Key:
# human RORγ = biological target: T1, human RORγ (Homo sapiens, UniProt P51449); experiment: Luciferase reporter gene assay of inhibitory effect against RORγ transcriptional activity (GAL4-hRORγ plasmid in CHO cells); format: cell-based
# T1 construct: human, NM_005060.3 and from Ser253 to Lys518; expressed in transfected cells; host or cells: CHO cells (transient co-transfection with pG5-Luc reporter)
# T1 sequence (P51449 253-518): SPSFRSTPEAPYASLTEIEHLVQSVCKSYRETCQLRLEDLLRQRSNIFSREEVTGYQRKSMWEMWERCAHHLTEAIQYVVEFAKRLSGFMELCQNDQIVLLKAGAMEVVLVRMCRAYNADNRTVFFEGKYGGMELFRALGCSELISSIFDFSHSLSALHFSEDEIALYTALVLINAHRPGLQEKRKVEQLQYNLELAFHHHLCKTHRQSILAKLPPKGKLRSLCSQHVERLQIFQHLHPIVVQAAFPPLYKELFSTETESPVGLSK
# mouse RORγ = biological target: T2, mouse RORγ (Mus musculus, UniProt P51450); experiment: Luciferase reporter gene assay of inhibitory effect against RORγ transcriptional activity (GAL4-mRORγ plasmid in CHO cells); format: cell-based
# T2 construct: mouse, NM_011281.2 and from Ile251 to Lys516; expressed in transfected cells; host or cells: CHO cells (transient co-transfection with pG5-Luc reporter)
# T2 sequence (P51450 251-516): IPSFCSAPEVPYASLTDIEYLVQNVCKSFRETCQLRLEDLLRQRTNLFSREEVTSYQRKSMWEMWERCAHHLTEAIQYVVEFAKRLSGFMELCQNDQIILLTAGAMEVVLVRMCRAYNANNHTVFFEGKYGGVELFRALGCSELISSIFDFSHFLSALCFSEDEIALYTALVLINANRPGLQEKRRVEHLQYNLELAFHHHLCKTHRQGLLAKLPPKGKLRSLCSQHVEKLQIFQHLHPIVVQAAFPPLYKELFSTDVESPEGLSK
# Procedure, shortened: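 CHO cells transiently co-transfected with GAL4-mouse RORγ LBD (Ile251–Lys516) and GAL4-dependent luciferase reporter; eight compound concentrations, 0.1% DMSO, 2 days at 37 °C. Luminescence as %-of-vehicle control; EC50 by curve fit, cytotoxic concentrations excluded.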
Structure (SMILES),EC50 (human RORγ; read-out: LUC EC50 (μM) hRORg) [µM],EC50 (mouse RORγ; read-out: LUC EC50 (μM) mRORg) [µM],EC50 (human RORγ; read-out: LUC EC50 hRORg) [µM],EC50 (mouse RORγ; read-out: LUC EC50 mRORg) [µM],also measured
C=CCC(CC(=O)Nc1ccc(C)cc1C)c1nnc(C(F)(F)CCC(C)(C)C)n1C1CC1 (racemic) [Example F-376],< 3,< 3,,,
Cc1ccc(NC(=O)CCc2nnc(CCC3CCCCC3)n2C2CCC2)c(C)c1 [Example F-112],> 3,< 3,,,
CCn1c(CCC(=O)NCc2cccc(C)c2)nnc1CCC1CCCCC1 [Example F-42],> 3,> 3,,,
Cc1ccc(NC(=O)C[C@H](CCC(=O)O)c2noc(-c3noc(CC(C)C)c3C)c2C2CC2)c(Cl)c1 [Example E-29],< 3,< 3,,,
Cc1cc(C)c(NC(=O)C[C@H](CCC(=O)O)c2noc([C@H]3C[C@@H](CC(C)(C)C)C3)c2C2CC2)cn1 [Example F-675],,,< 3,< 3,
COCCC(CC(=O)Nc1ccc(C)cc1C)c1nnc(CCC2CCCCC2)n1C1CC1 (racemic) [Example F-396],< 3,< 3,,,
Cc1c(Cl)cccc1NC(=O)CCc1nnc(C#CC(C)C)n1C1CC1 [Example F-158],> 3,< 3,,,
CC(C)C(F)(F)c1cc(-c2onc([C@@H](CCC(=O)O)CC(=O)Nc3ccc(F)cc3Cl)c2C2CC2)no1 [Example E-61],< 3,< 3,,,
Cc1c(Cl)cccc1NC(=O)CC(CCO)c1nnc(CCCC(C)C)n1C1CC1 (racemic) [Example F-199],< 3,< 3,,,
CC(C)C(F)(F)c1cc(-c2onc([C@@H](CCC(=O)O)CC(=O)Nc3ccc(Cl)cc3F)c2C2CC2)no1 [Example E-55],< 3,< 3,,,
Cc1ccc(NC(=O)CC(c2nnc([C@H]3C[C@@H](CC(C)C)C3)n2C2CC2)C(C)O)c(C)c1 (mixture of isomers) [Example F-529],,,< 3,< 3,
CCC1(CC)CC(c2nnc(CCC(=O)Nc3ccc(C)cc3C)n2C2CC2)C1 [Example F-451],< 3,< 3,,,
Cc1ccc(NC(=O)[C@H]2CN(C(=O)N3CCN(C)CC3)C[C@@H]2c2nnc([C@H]3C[C@@H](CC(C)C)C3)n2C2CC2)c(C)c1 [Example F-655],,,< 3,< 3,
Cc1ccc(NC(=O)CC(CCN)c2nnc(CCCC(C)C)n2C2CC2)c(C)c1 (racemic) [Example F-273],> 3,> 3,,,
Cc1ccc(NC(=O)CC(Cc2nc(=O)on2C)c2nnc([C@H]3C[C@@H](CC(C)C)C3)n2C2CC2)c(C)c1 (mixture of isomers) [Example F-485],< 3,< 3,,,
Cc1ccc(NC(=O)C[C@H](CCC(=O)O)c2noc([C@H]3C[C@@H](CC(C)(C)C)C3)c2C2CC2)nc1C [Example F-680],,,< 3,< 3,
CC(C)(CO)C[C@H]1C[C@@H](c2onc([C@@H](CCC(=O)O)CC(=O)Nc3ccc(CO)cc3Cl)c2C2CC2)C1 [Example F-726],,,> 3,> 3,
CCn1c(CCC(=O)NC2CCCc3ccccc32)nnc1C1Cc2ccccc2C1 (centres unmarked) [Example F-10],,,,,EC50 (human RORγ; LUC EC50 (μM) hRORg): > 3 µM; EC50 (mouse RORγ; LUC EC50 (μM) mRORg): > 3 µM
CC(=O)N1C[C@H](C(=O)Nc2ccc(Cl)cc2F)[C@@H](c2nnc([C@H]3C[C@@H](CC(C)C)C3)n2C2CC2)C1 [Example F-604],,,< 3,< 3,
COc1cc(C)ccc1CNC(=O)CCc1noc(C23CC4CC(CC(C4)C2)C3)c1C1CC1 [Example F-735],,,< 3,< 3,
CCC(C)(C)CCc1nnc([C@H]2CN(C(C)=O)C[C@@H]2C(=O)Nc2ccc(C)cc2C)n1C1CC1 (racemic) [Example F-299],< 3,< 3,,,
CN[C@@H](CC(=O)Nc1ccc(C)cc1C)c1nnc(CCCC(C)(C)C)n1C1CC1 [Example F-353],< 3,< 3,,,
Cc1ccc(NC(=O)CC(CC(=O)N2CC[C@H](O)C2)c2nnc([C@H]3C[C@@H](CC(C)C)C3)n2C2CC2)c(C)c1 (mixture of isomers) [Example F-503],,,> 3,> 3,
Cc1ccc(NC(=O)C[C@@H](c2nnc([C@H]3C[C@@H](CC(C)C)C3)n2C2CC2)N(C)CCO)c(C)c1 [Example F-544],,,< 3,< 3,
CCn1c(CCC(=O)NC23CC4CC(CC(C4)C2)C3)nnc1C1Cc2ccccc2C1 [Example F-24],> 3,> 3,,,
